# In patent US12478690B2, “Methods and systems for controlled release of drug cargo via ATP-responsive liposomes” (UNIVERSITY OF TENNESSEE RESEARCH FOUNDATION, priority 2021, dated 2025):
# Test: Diffusion ordered spectroscopy (DOSY) of the lipid switch before and after ATP
# Type: physicochemical
# Conditions: DMSO containing 8% D2O; substance alone
# Method: Diffusion ordered spectroscopy (DOSY) was performed on 1a lipid switch molecules in de-DMSO containing 8% D2O before and after adding ATP. A decrease in diffusion coefficient was observed. In at least one experiment, the diffusion coefficient decreased from (1.0793±0.043)×10^−6 cm^2/s for 1a lipid switch molecule and (1.142±0.018)×10^−6 cm^2/s for ATP to (0.987±0.098)×10^−6 cm^2/s for 1a+ATP. The diffusion coefficient indicates an increase in the hydrodynamic radius per lipid molecule upon binding.
structure (smiles),measurement,value
"Nc1ncnc2c1ncn2[C@@H]1O[C@H](COP(=O)(O)OP(=O)(O)OP(=O)(O)O)[C@@H](O)[C@H]1O [ATP, adenosine triphosphate]",Diffusion coefficient,1.142±0.018 ×10^−6 cm^2/s
